PMC8414988 (Pediatric blood & cancer, 2021)

Experiment: Adverse events graded by NCI CTCAE v4.0, all reported regardless of attribution
Format: in vivo, human

CC(=O)c1c(C)c2cnc(Nc3ccc(N4CCNCC4)cn3)nc2n(C2CCCC2)c1=O [palbociclib]
2: Mucositis oral, patients (Stratum I, grade 1) | Headache, patients (Stratum I, grade 2) | Mucositis oral, patients (Stratum I, grade 2) | Alanine aminotransferase increased, patients (Stratum II, grade 1) | Dizziness, patients (Stratum II, grade 1) | Electrocardiogram qt corrected interval prolonged, patients (Stratum II, grade 1) | Constipation, episodes (Stratum II, grade 2) | Alanine aminotransferase increased, patients (Stratum II, overall) | Constipation, patients (Stratum II, overall) | Electrocardiogram qt corrected interval prolonged, patients (Stratum II, overall)
14: White blood cell decreased, episodes (Stratum I, grade 1) | White blood cell decreased, patients (Stratum I, grade 2)
8: Constipation, episodes (Stratum I, grade 1) | Lymphocyte count decreased, patients (Stratum I, grade 1) | Neutrophil count decreased, episodes (Stratum I, grade 1) | Constipation, episodes (Stratum I, overall) | Platelet count decreased, patients (Stratum II, grade 1) | Platelet count decreased, patients (Stratum II, overall)
12: Lymphocyte count decreased, episodes (Stratum I, grade 3)
10: Platelet count decreased, patients (Stratum I, grade 1) | Fatigue, episodes (Stratum I, overall) | Mucositis oral, episodes (Stratum I, overall) | Platelet count decreased, patients (Stratum I, overall) | Lymphocyte count decreased, episodes (Stratum II, grade 1) | Neutrophil count decreased, patients (Stratum II, grade 2) | Anemia, patients (Stratum II, overall)
17: Lymphocyte count decreased, episodes (Stratum I, grade 2) | White blood cell decreased, patients (Stratum I, overall) | Anemia, episodes (Stratum II, grade 1)
5: Anemia, patients (Stratum I, grade 1) | Hypokalemia, episodes (Stratum I, grade 1) | Mucositis oral, episodes (Stratum I, grade 1) | Neutrophil count decreased, patients (Stratum I, grade 1) | Vomiting, episodes (Stratum I, grade 1) | Mucositis oral, episodes (Stratum I, grade 2) | Hypokalemia, patients (Stratum I, overall) | Vomiting, patients (Stratum I, overall) | Lymphocyte count decreased, patients (Stratum II, grade 1) | Vomiting, episodes (Stratum II, grade 1) | White blood cell decreased, patients (Stratum II, grade 1) | Platelet count decreased, episodes (Stratum II, grade 2)
51: Lymphocyte count decreased, episodes (Stratum I, overall)
15: Neutrophil count decreased, patients (Stratum I, overall)
13: Lymphocyte count decreased, patients (Stratum I, overall) | White blood cell decreased, episodes (Stratum II, grade 1) | Neutrophil count decreased, episodes (Stratum II, grade 3)
39: Neutrophil count decreased, episodes (Stratum II, overall)
3: Diarrhea, patients (Stratum I, grade 1) | Headache, patients (Stratum I, grade 1) | Nausea, patients (Stratum I, grade 1) | Headache, episodes (Stratum I, grade 2) | White blood cell decreased, patients (Stratum I, grade 3) | Diarrhea, patients (Stratum I, overall) | Mucositis oral, patients (Stratum I, overall) | Nausea, patients (Stratum I, overall) | Alanine aminotransferase increased, episodes (Stratum II, grade 1) | Dizziness, episodes (Stratum II, grade 1) | Electrocardiogram qt corrected interval prolonged, episodes (Stratum II, grade 1) | Vomiting, patients (Stratum II, grade 1) | Lymphocyte count decreased, patients (Stratum II, grade 2) | Platelet count decreased, patients (Stratum II, grade 2) | Alanine aminotransferase increased, episodes (Stratum II, overall) | Constipation, episodes (Stratum II, overall) | Dizziness, patients (Stratum II, overall) | Electrocardiogram qt corrected interval prolonged, episodes (Stratum II, overall)
4(4): Alanine aminotransferase increased, episodes (Stratum I, grade 1) | Alanine aminotransferase increased, patients (Stratum I, grade 1) | Alanine aminotransferase increased, episodes (Stratum I, overall) | Alanine aminotransferase increased, patients (Stratum I, overall) | Fatigue, episodes (Stratum II, overall) | Fatigue, patients (Stratum II, overall) | Headache, episodes (Stratum II, overall) | Headache, patients (Stratum II, overall)
24: Platelet count decreased, episodes (Stratum II, overall)
18: White blood cell decreased, episodes (Stratum II, grade 2)
1(1): Ataxia, episodes (Stratum I, grade 1) | Ataxia, patients (Stratum I, grade 1) | Hypokalemia, episodes (Stratum I, grade 2) | Hypokalemia, patients (Stratum I, grade 2) | Nausea, episodes (Stratum I, grade 2) | Nausea, patients (Stratum I, grade 2) | Vomiting, episodes (Stratum I, grade 2) | Vomiting, patients (Stratum I, grade 2) | Ataxia, episodes (Stratum I, grade 3) | Ataxia, patients (Stratum I, grade 3) | Gait disturbance, episodes (Stratum I, grade 3) | Gait disturbance, patients (Stratum I, grade 3) | Nausea, episodes (Stratum I, grade 3) | Nausea, patients (Stratum I, grade 3) | Vomiting, episodes (Stratum I, grade 3) | Vomiting, patients (Stratum I, grade 3) | Constipation, episodes (Stratum II, grade 1) | Constipation, patients (Stratum II, grade 1) | Headache, episodes (Stratum II, grade 1) | Headache, patients (Stratum II, grade 1) | Mucositis oral, episodes (Stratum II, grade 1) | Mucositis oral, patients (Stratum II, grade 1) | Pain, episodes (Stratum II, grade 1) | Pain, patients (Stratum II, grade 1) | Dizziness, episodes (Stratum II, grade 2) | Dizziness, patients (Stratum II, grade 2) | Headache, episodes (Stratum II, grade 2) | Headache, patients (Stratum II, grade 2) | Mucositis oral, episodes (Stratum II, grade 2) | Mucositis oral, patients (Stratum II, grade 2) | Pain, episodes (Stratum II, grade 3) | Pain, patients (Stratum II, grade 3) | Vomiting, episodes (Stratum II, grade 3) | Vomiting, patients (Stratum II, grade 3) | Neutrophil count decreased, episodes (Stratum II, grade 4) | Neutrophil count decreased, patients (Stratum II, grade 4) | Platelet count decreased, episodes (Stratum II, grade 4) | Platelet count decreased, patients (Stratum II, grade 4)
1: Constipation, patients (Stratum II, grade 2)
7: Anemia, episodes (Stratum I, grade 1) | Neutrophil count decreased, patients (Stratum I, grade 2) | Lymphocyte count decreased, patients (Stratum I, grade 3) | Anemia, patients (Stratum I, overall) | Headache, episodes (Stratum I, overall) | Vomiting, episodes (Stratum I, overall) | White blood cell decreased, episodes (Stratum II, grade 3) | Lymphocyte count decreased, patients (Stratum II, overall)
19: White blood cell decreased, episodes (Stratum I, grade 3) | Neutrophil count decreased, episodes (Stratum II, grade 2) | Lymphocyte count decreased, episodes (Stratum II, overall)
4: Diarrhea, episodes (Stratum I, grade 1) | Headache, episodes (Stratum I, grade 1) | Hypokalemia, patients (Stratum I, grade 1) | Nausea, episodes (Stratum I, grade 1) | Vomiting, patients (Stratum I, grade 1) | Lymphocyte count decreased, patients (Stratum I, grade 2) | Diarrhea, episodes (Stratum I, overall) | Headache, patients (Stratum I, overall) | Neutrophil count decreased, patients (Stratum II, grade 1) | Dizziness, episodes (Stratum II, overall) | Vomiting, patients (Stratum II, overall)
70: White blood cell decreased, episodes (Stratum I, overall)
37: White blood cell decreased, episodes (Stratum I, grade 2)
27: Neutrophil count decreased, episodes (Stratum I, grade 3)
64: Neutrophil count decreased, episodes (Stratum I, overall)
6: Constipation, patients (Stratum I, grade 1) | Constipation, patients (Stratum I, overall) | Hypokalemia, episodes (Stratum I, overall) | Nausea, episodes (Stratum I, overall) | Neutrophil count decreased, episodes (Stratum II, grade 1) | Lymphocyte count decreased, episodes (Stratum II, grade 2) | White blood cell decreased, patients (Stratum II, grade 3) | Vomiting, episodes (Stratum II, overall)
9: White blood cell decreased, patients (Stratum I, grade 1) | Neutrophil count decreased, patients (Stratum I, grade 3) | Anemia, episodes (Stratum I, overall) | Fatigue, patients (Stratum I, overall) | Anemia, patients (Stratum II, grade 1) | White blood cell decreased, patients (Stratum II, grade 2) | Neutrophil count decreased, patients (Stratum II, grade 3)
7(7): Fatigue, episodes (Stratum I, grade 1) | Fatigue, patients (Stratum I, grade 1)
2(2): Anemia, episodes (Stratum I, grade 2) | Anemia, patients (Stratum I, grade 2) | Gait disturbance, episodes (Stratum I, grade 2) | Gait disturbance, patients (Stratum I, grade 2) | Aspartate aminotransferase increased, episodes (Stratum II, grade 1) | Aspartate aminotransferase increased, patients (Stratum II, grade 1) | Fatigue, episodes (Stratum II, grade 1) | Fatigue, patients (Stratum II, grade 1) | Hypercalcemia, episodes (Stratum II, grade 1) | Hypercalcemia, patients (Stratum II, grade 1) | Hyperkalemia, episodes (Stratum II, grade 1) | Hyperkalemia, patients (Stratum II, grade 1) | Fatigue, episodes (Stratum II, grade 2) | Fatigue, patients (Stratum II, grade 2) | Headache, episodes (Stratum II, grade 3) | Headache, patients (Stratum II, grade 3) | Platelet count decreased, episodes (Stratum II, grade 3) | Platelet count decreased, patients (Stratum II, grade 3) | Aspartate aminotransferase increased, episodes (Stratum II, overall) | Aspartate aminotransferase increased, patients (Stratum II, overall) | Hypercalcemia, episodes (Stratum II, overall) | Hypercalcemia, patients (Stratum II, overall) | Hyperkalemia, episodes (Stratum II, overall) | Hyperkalemia, patients (Stratum II, overall) | Mucositis oral, episodes (Stratum II, overall) | Mucositis oral, patients (Stratum II, overall) | Pain, episodes (Stratum II, overall) | Pain, patients (Stratum II, overall)
16: Platelet count decreased, episodes (Stratum II, grade 1)
11: Neutrophil count decreased, patients (Stratum II, overall) | White blood cell decreased, patients (Stratum II, overall)
38: White blood cell decreased, episodes (Stratum II, overall)
5(5): Ataxia, episodes (Stratum I, overall) | Ataxia, patients (Stratum I, overall)
myelosuppression: most common toxicity (Stratum I and II)
28: Platelet count decreased, episodes (Stratum I, grade 1) | Platelet count decreased, episodes (Stratum I, overall)
26: Neutrophil count decreased, episodes (Stratum I, grade 2)
22: Lymphocyte count decreased, episodes (Stratum I, grade 1)
20: Anemia, episodes (Stratum II, overall)
3(3): Dry skin, episodes (Stratum I, grade 1) | Dry skin, patients (Stratum I, grade 1) | Ataxia, episodes (Stratum I, grade 2) | Ataxia, patients (Stratum I, grade 2) | Fatigue, episodes (Stratum I, grade 2) | Fatigue, patients (Stratum I, grade 2) | Muscle weakness left-sided, episodes (Stratum I, grade 3) | Muscle weakness left-sided, patients (Stratum I, grade 3) | Neutrophil count decreased, episodes (Stratum I, grade 4) | Neutrophil count decreased, patients (Stratum I, grade 4) | Dry skin, episodes (Stratum I, overall) | Dry skin, patients (Stratum I, overall) | Gait disturbance, episodes (Stratum I, overall) | Gait disturbance, patients (Stratum I, overall) | Muscle weakness left-sided, episodes (Stratum I, overall) | Muscle weakness left-sided, patients (Stratum I, overall) | Anorexia, episodes (Stratum II, grade 1) | Anorexia, patients (Stratum II, grade 1) | Hypokalemia, episodes (Stratum II, grade 1) | Hypokalemia, patients (Stratum II, grade 1) | Anemia, episodes (Stratum II, grade 2) | Anemia, patients (Stratum II, grade 2) | Lymphocyte count decreased, episodes (Stratum II, grade 3) | Lymphocyte count decreased, patients (Stratum II, grade 3) | Seizure, episodes (Stratum II, grade 3) | Seizure, patients (Stratum II, grade 3) | Anorexia, episodes (Stratum II, overall) | Anorexia, patients (Stratum II, overall) | Hypokalemia, episodes (Stratum II, overall) | Hypokalemia, patients (Stratum II, overall) | Seizure, episodes (Stratum II, overall) | Seizure, patients (Stratum II, overall)
